Measurements published in ChEMBL document CHEMBL1201862, “PubChem BioAssay data set” (2004).
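Tested at 5 concentrations; 48 h exposure; 96-well plates; endpoints linearly interpolated, else capped at highest concentration. Abbreviation: GI50, concentration required for 50% inhibition of growth.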 Calls of active or inactive are those of the source. Cut-off read from the data, not from the text of the source: active = GI50 up to about 1.1 µM and inactive = higher.

Columns and labels:
Experiment in all cases: inhibition of tumour cell growth, NCI panel, 48 h
NCI-H23 = system: NCI-H23
SF-268 = system: SF-268
NCI-H522 = system: NCI-H522
HCC 2998 = system: HCC 2998
HOP-92 = system: HOP-92
M14 = system: M14
786-0 = system: 786-0
EKVX = system: EKVX
HOP-62 = system: HOP-62
U-251 = system: U-251
PC-3 = system: PC-3
SF-539 = system: SF-539
HT-29 = system: HT-29
OVCAR-3 = system: OVCAR-3
DU-145 = system: DU-145
MDA-MB-231 = system: MDA-MB-231
SNB-19 = system: SNB-19
MDA-MB-435 = system: MDA-MB-435
UO-31 = system: UO-31
K562 = system: K562

| SMILES | GI50 (NCI-H23) | GI50 (SF-268) | GI50 (NCI-H522) | GI50 (HCC 2998) | GI50 (HOP-92) | GI50 (M14) | GI50 (786-0) | GI50 (EKVX) | GI50 (HOP-62) | GI50 (U-251) | GI50 (PC-3) | GI50 (SF-539) | GI50 (HT-29) | GI50 (OVCAR-3) | GI50 (DU-145) | GI50 (MDA-MB-231) | GI50 (SNB-19) | GI50 (MDA-MB-435) | GI50 (UO-31) | GI50 (K562) |
| --- | --- | --- | --- | --- | --- | --- | --- | --- | --- | --- | --- | --- | --- | --- | --- | --- | --- | --- | --- | --- |
| Nc1ccn(C2OC(C(OC3OC(CO)C(O)C(N)C3O)C(O)C(O)C(O)C(O)CO)C(N)C(O)C2O)c(=O)n1 (stereo not given) | > 100 µM (inactive) | 11 µM (inactive) | 22.5 µM (inactive) | 5.26 µM (inactive) | 3.78 µM (inactive) | 44 µM (inactive) | 35.5 µM (inactive) | > 100 µM (inactive) | 20.7 µM (inactive) | > 100 µM (inactive) | 50.7 µM (inactive) | 11.3 µM (inactive) | > 100 µM (inactive) | 22.4 µM (inactive) | > 100 µM (inactive) | 6.44 µM (inactive) | 47.3 µM (inactive) | > 100 µM (inactive) | 52 µM (inactive) |  |
| Nc1c(Cl)cc(-c2nc3ccccc3s2)cc1Cl |  | > 100 µM (inactive) | > 100 µM (inactive) | > 100 µM (inactive) | > 100 µM (inactive) | > 100 µM (inactive) | 22.6 µM (inactive) | > 100 µM (inactive) | > 100 µM (inactive) | > 100 µM (inactive) | > 100 µM (inactive) | > 100 µM (inactive) | > 100 µM (inactive) | > 100 µM (inactive) | > 100 µM (inactive) | 69 µM (inactive) | > 100 µM (inactive) | > 100 µM (inactive) | > 100 µM (inactive) | > 100 µM (inactive) |
| COc1ccc(C2SCC(=O)N2NC(=O)C(C)Oc2ccccc2Cl)cc1 (stereo not given) | 67.8 µM (inactive) | > 100 µM (inactive) | 51.9 µM (inactive) | > 100 µM (inactive) | 23.7 µM (inactive) | 41.9 µM (inactive) | 98.6 µM (inactive) | 83.2 µM (inactive) |  | 38 µM (inactive) | 33.7 µM (inactive) | > 100 µM (inactive) | 65.8 µM (inactive) |  | 94.8 µM (inactive) | 26.9 µM (inactive) | 69.2 µM (inactive) | 33 µM (inactive) | 70.5 µM (inactive) | 47.4 µM (inactive) |
| O=C1C=C2CCC[C@H]3OC(=O)C[C@@]23CC1 | > 100 µM (inactive) | > 100 µM (inactive) | > 100 µM (inactive) | > 100 µM (inactive) | > 100 µM (inactive) | > 100 µM (inactive) | > 100 µM (inactive) | > 100 µM (inactive) | > 100 µM (inactive) | > 100 µM (inactive) | > 100 µM (inactive) | > 100 µM (inactive) | > 100 µM (inactive) | > 100 µM (inactive) | > 100 µM (inactive) | > 100 µM (inactive) | > 100 µM (inactive) | > 100 µM (inactive) |  | > 100 µM (inactive) |
| Cn1c2ccc(Cl)cc2c2ccc3c(c21)C(=O)C=CC3=O | > 10 µM (inactive) | > 10 µM (inactive) | > 10 µM (inactive) | > 10 µM (inactive) | > 10 µM (inactive) | > 10 µM (inactive) | > 10 µM (inactive) | > 10 µM (inactive) | > 10 µM (inactive) | > 10 µM (inactive) | > 10 µM (inactive) | > 10 µM (inactive) | > 10 µM (inactive) | > 10 µM (inactive) | > 10 µM (inactive) | > 10 µM (inactive) | > 10 µM (inactive) | > 10 µM (inactive) |  | 9.14 µM (inactive) |
| C=C1C(=O)O[C@@H]2C=C(C)C3=CC(=O)[C@](C)(C[C@H](OC(=O)/C(C)=C\C)[C@@H]12)O3 | 1.22 µM (inactive) | 3.12 µM (inactive) | 0.144 µM (active) | 1.51 µM (inactive) | 0.671 µM (active) | 0.644 µM (active) | 0.374 µM (active) |  | 3.14 µM (inactive) | 1.85 µM (inactive) | 1.51 µM (inactive) | 2.43 µM (inactive) | 0.647 µM (active) |  | 4.1 µM (inactive) | 0.759 µM (active) |  | 0.813 µM (active) | 1.09 µM (active) | 0.282 µM (active) |
| CC1(C)OCN(c2ccc(Cl)cc2)Cn2c1nc1ccccc12 | 18.1 µM (inactive) | 15.8 µM (inactive) | 12.6 µM (inactive) | 3.56 µM (inactive) | > 80.9 µM (inactive) |  | > 89.9 µM (inactive) | 63 µM (inactive) | > 27.3 µM (inactive) | 22.3 µM (inactive) | 1.94 µM (inactive) | 6.5 µM (inactive) | > 100 µM (inactive) | > 51.9 µM (inactive) | 6.85 µM (inactive) | 3.18 µM (inactive) | > 71.3 µM (inactive) | 0.611 µM (active) | 9.79 µM (inactive) | 0.904 µM (active) |
